Source: ChEMBL document CHEMBL3870338, “Microwave assisted synthesis of novel tetrazole/sulfonamide derivatives based on octahydroacridine, xanthene and chromene skeletons as inhibitors of the carbonic anhydrases isoforms I, II, IV and VII” (Bioorg Med Chem Lett, 2017)

What was measured:
Carbonic anhydrase 4 = Carbonic anhydrase 4 (Homo sapiens, UniProt P22748); experiment: Inhibition of human recombinant carbonic anhydrase 4 expressed in Escherichia coli assessed as reduction in CO2 hydration preincubated for 15 mins prior to testing measured for 10 to 100 secs by stopped-flow assay
Carbonic anhydrase 2 = Carbonic anhydrase 2 (Homo sapiens, UniProt P00918); experiment: Inhibition of human recombinant carbonic anhydrase 2 expressed in Escherichia coli assessed as reduction in CO2 hydration preincubated for 15 mins prior to testing measured for 10 to 100 secs by stopped-flow assay
Carbonic anhydrase 1 = Carbonic anhydrase 1 (Homo sapiens, UniProt P00915); experiment: Inhibition of human recombinant carbonic anhydrase 1 expressed in Escherichia coli assessed as reduction in CO2 hydration preincubated for 15 mins prior to testing measured for 10 to 100 secs by stopped-flow assay
Carbonic anhydrase 7 = Carbonic anhydrase 7 (Homo sapiens, UniProt P43166); experiment: Inhibition of human recombinant carbonic anhydrase 7 expressed in Escherichia coli assessed as reduction in CO2 hydration preincubated for 15 mins prior to testing measured for 10 to 100 secs by stopped-flow assay
Chain of Carbonic anhydrase 7 (P43166 whole entry): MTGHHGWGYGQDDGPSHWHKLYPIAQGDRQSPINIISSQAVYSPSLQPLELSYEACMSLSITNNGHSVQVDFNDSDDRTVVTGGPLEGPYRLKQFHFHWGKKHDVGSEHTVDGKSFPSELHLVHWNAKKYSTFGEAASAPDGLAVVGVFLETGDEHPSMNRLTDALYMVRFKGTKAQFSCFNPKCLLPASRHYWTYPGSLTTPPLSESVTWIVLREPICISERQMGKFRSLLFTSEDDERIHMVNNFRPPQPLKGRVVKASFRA

Chain of Carbonic anhydrase 1 (P00915 whole entry): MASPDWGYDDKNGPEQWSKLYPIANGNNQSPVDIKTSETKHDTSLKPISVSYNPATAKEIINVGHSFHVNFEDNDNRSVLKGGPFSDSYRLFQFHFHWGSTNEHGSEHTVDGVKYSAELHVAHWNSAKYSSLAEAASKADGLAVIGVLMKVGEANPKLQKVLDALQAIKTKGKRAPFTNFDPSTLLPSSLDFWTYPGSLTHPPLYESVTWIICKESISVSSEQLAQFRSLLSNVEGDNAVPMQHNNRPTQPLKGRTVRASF
Chain of Carbonic anhydrase 4 (P22748 whole entry): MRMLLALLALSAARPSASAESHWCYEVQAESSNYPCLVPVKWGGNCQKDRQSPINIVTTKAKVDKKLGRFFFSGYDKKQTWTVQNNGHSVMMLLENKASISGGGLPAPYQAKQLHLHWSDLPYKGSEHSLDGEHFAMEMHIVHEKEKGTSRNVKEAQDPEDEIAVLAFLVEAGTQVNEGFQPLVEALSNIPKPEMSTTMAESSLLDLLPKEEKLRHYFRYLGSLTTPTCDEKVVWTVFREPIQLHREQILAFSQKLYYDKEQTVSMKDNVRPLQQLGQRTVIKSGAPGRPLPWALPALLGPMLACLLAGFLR

| Structure (SMILES) | Ki (Carbonic anhydrase 4) [µM] | Ki (Carbonic anhydrase 2) [µM] | Ki (Carbonic anhydrase 1) [µM] | Ki (Carbonic anhydrase 7) [µM] |
| --- | --- | --- | --- | --- |
| O=C1CCCC2=C1C(c1ccc(-c3nnn[nH]3)cc1)C1=C(CCCC1=O)O2 | > 10 | > 10 | > 10 | > 10 |
| O=C1CCCC2=C1C(c1cccc(-c3nnn[nH]3)c1)C1=C(CCCC1=O)O2 | > 10 | > 10 | > 10 | > 10 |
| O=Cc1cccc(-c2nnn[nH]2)c1 | > 10 | > 10 | > 10 | > 10 |
| O=Cc1ccc(-c2nnn[nH]2)cc1 | > 10 | > 10 | > 10 | > 10 |
| CC1(C)CC(=O)C2=C(C1)OC1=C(C(=O)CC(C)(C)C1)C2c1ccc(-c2nnn[nH]2)cc1 | > 10 | > 10 | > 10 | > 10 |
| N#CC1=C(N)OC2=C(C(=O)CCC2)C1c1ccc(-c2nnn[nH]2)cc1 (stereo not given) | > 10 | > 10 | > 10 | > 10 |

The remaining lines, values ahead:

| Ki (Carbonic anhydrase 4) [µM] | Ki (Carbonic anhydrase 2) [µM] | Ki (Carbonic anhydrase 1) [µM] | Ki (Carbonic anhydrase 7) [µM] | Structure (SMILES) |
| --- | --- | --- | --- | --- |
| > 10 | > 10 | > 10 | > 10 | CC1(C)CC(=O)C2=C(C1)OC(N)=C(C#N)C2c1cccc(-c2nnn[nH]2)c1 (stereo not given) |
| > 10 | > 10 | > 10 | > 10 | CC1(C)CC(=O)C2=C(C1)OC1=C(C(=O)CC(C)(C)C1)C2c1cccc(-c2nnn[nH]2)c1 |
| > 10 | > 10 | > 10 | > 10 | CC1(C)CC(=O)C2=C(C1)OC(N)=C(C#N)C2c1ccc(-c2nnn[nH]2)cc1 (stereo not given) |
| > 10 | > 10 | > 10 | > 10 | N#CC1=C(N)OC2=C(C(=O)CCC2)C1c1cccc(-c2nnn[nH]2)c1 (stereo not given) |
